Assay results published in patent US20220388964A1 (HiberCell, Inc., priority 2019, published 2022).

These compounds were tested against GCN2 (Homo sapiens, UniProt Q9P2K8) (assay: TR-FRET biochemical assay for inhibition of GCN2 (Example 106, for Example 1-4BB)). Conditions: Table 8.
GCN2, sequence (Q9P2K8 whole entry): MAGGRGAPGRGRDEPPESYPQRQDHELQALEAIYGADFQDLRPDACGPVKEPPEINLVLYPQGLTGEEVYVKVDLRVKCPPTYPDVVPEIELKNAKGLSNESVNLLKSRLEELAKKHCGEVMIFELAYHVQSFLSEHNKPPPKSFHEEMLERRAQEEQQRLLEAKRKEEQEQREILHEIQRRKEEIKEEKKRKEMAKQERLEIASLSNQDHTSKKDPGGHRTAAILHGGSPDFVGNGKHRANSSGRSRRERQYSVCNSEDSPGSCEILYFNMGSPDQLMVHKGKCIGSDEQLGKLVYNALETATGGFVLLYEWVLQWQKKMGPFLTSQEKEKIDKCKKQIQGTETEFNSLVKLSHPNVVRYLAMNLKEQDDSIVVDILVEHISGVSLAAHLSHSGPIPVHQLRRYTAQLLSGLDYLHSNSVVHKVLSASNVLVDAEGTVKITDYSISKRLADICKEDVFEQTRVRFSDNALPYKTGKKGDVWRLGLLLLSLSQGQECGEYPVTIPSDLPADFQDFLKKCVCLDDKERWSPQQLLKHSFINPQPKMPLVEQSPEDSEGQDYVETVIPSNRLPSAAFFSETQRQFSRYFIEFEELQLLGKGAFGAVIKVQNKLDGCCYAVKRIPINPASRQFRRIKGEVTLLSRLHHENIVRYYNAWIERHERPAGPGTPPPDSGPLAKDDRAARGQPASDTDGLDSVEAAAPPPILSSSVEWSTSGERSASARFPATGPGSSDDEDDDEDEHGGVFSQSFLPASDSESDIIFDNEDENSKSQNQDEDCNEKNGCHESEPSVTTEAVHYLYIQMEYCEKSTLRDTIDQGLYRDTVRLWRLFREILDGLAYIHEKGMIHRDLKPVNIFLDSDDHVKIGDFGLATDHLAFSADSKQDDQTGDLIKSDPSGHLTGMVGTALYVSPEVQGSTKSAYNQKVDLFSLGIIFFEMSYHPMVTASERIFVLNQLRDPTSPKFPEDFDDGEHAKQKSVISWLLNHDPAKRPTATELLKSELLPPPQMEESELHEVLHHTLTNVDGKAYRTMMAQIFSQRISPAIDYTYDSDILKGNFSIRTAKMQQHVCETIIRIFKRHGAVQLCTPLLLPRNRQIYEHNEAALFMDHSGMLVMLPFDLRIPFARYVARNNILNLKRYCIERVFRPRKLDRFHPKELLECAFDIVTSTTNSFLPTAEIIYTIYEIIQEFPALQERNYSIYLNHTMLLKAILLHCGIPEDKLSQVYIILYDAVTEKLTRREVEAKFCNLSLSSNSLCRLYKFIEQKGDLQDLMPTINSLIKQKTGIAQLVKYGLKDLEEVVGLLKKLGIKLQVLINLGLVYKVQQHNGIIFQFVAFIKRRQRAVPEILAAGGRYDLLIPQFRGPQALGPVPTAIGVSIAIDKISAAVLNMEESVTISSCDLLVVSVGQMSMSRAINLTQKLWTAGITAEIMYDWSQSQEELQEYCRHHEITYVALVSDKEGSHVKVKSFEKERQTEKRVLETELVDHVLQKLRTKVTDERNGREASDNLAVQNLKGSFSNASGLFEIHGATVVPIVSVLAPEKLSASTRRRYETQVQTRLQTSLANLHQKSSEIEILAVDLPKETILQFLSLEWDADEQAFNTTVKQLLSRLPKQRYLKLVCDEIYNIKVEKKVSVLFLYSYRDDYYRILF

IC50 | Structure (SMILES)
< 500 nM | COc1ncc(Cl)cc1S(=O)(=O)Nc1ccc(F)c(-c2ccc3c(-c4ncc[nH]4)n[nH]c3c2F)c1 [Example 2J, 5-chloro-N-(4-fluoro-3-(7-fluoro-3-(1H-imidazol-2-yl)-1H-indazol-6-yl)phenyl)-2-methoxy-pyridine-3-sulfonamide]
2500 to 10000 nM | CCn1cc(S(=O)(=O)Nc2ccc(F)c(-c3ccc4c(-c5ncc[nH]5)n[nH]c4c3F)c2F)cn1 [Example 2D, N-(2,4-difluoro-3-(7-fluoro-3-(1H-imidazol-2-yl)-1H-indazol-6-yl)phenyl)-1-ethyl-1H-pyrazole-4-sulfonamide]
< 500 nM | O=S(=O)(Nc1ccc(F)c(-c2ccc3c(-c4ncc[nH]4)n[nH]c3c2F)c1F)c1cccnc1Cl [Example 2BM, 2-chloro-N-(2,4-difluoro-3-(7-fluoro-3-(1H-imidazol-2-yl)-1H-indazol-6-yl)phenyl)-pyridine-3-sulfonamide]
< 500 nM | COC(=O)c1ccc(Cl)cc1S(=O)(=O)Nc1ccc(F)c(-c2ccc3c(-c4ncc[nH]4)n[nH]c3c2F)c1F [Example 2BC, methyl 4-chloro-2-(N-(2,4-difluoro-3-(7-fluoro-3-(1H-imidazol-2-yl)-1H-indazol-6-yl)phenyl)sulfamoyl)benzoate]
500 to 2500 nM | COc1ccccc1S(=O)(=O)Nc1ccc(F)c(-c2ccc3c(-c4ncc[nH]4)n[nH]c3c2F)c1F [Example 2BF, N-(2,4-difluoro-3-(7-fIuoro-3-(1H-imidazol-2-yl)-1H-indazol-6-yl)phenyl)-2-methoxybenzenesulfonamide]
500 to 2500 nM | COc1ncc(Cl)cc1S(=O)(=O)Nc1ccc(F)c(-c2ccc3c(NC(C)=O)n[nH]c3c2F)c1F [Example 8, N-(6-(3-((5-Chloro-2-methoxypyridine)-3-sulfonamido)-2,6-difluorophenyl)-7-fluoro-1H-indazol-3-yl)acetamide]
< 500 nM | Cc1cnc(C)c(S(=O)(=O)Nc2ccc(F)c(-c3ccc4c(-c5ncc[nH]5)n[nH]c4c3F)c2F)c1 [Example 2AH, N-(2,4-difluoro-3-(7-fluoro-3-(1H-imidazol-2-yl)-1H-indazol-6-yl)phenyl)-2,5-dimethyl-pyridine-3-sulfonamide]
2500 to 10000 nM | Cc1nn(C)cc1S(=O)(=O)Nc1cccc(-c2ccc3c(-c4ncc[nH]4)n[nH]c3c2F)c1F [Example 2N, N-(2-fluoro-3-(7-fluoro-3-(1H-imidazol-2-yl)-1H-indazol-6-yl)phenyl)-1,3-dimethyl-1H-pyrazole-4-sulfonamide]
< 500 nM | COc1ncc(Cl)cc1S(=O)(=O)Nc1ccc(F)c(-c2ccc3c(-c4ccn[nH]4)n[nH]c3c2F)c1F [Example 2BZ, 5-chloro-N-(2,4-difluoro-3-(7-fluoro-3-(1H-pyrazol-5-yl)-1H-indazol-6-yl)phenyl)-2-methoxypyridine-3-sulfonamide]
< 500 nM | COc1ncc(Cl)cc1S(=O)(=O)Nc1ccc(F)c(-c2ccc3c(C(=O)NC(C)C)n[nH]c3c2F)c1F [Example 2CK, 6-(3-((5-chloro-2-methoxy-pyridine)-3-sulfonamido)-2,6-difluorophenyl)-7-fluoro-N-isopropyl-1H-indazole-3-carboxamide]
2500 to 10000 nM | COc1ncc(Cl)cc1S(=O)(=O)Nc1cc(C)nc(-c2ccc3c(-c4ncc[nH]4)n[nH]c3c2F)c1F [Example 2AO, 5-chloro-N-(3-fluoro-2-(7-fluoro-3-(1H-imidazol-2-yl)-1H-indazol-6-yl)-6-methyl-pyridin-4-yl)-2-methoxy-pyridine-3-sulfonamide]
2500 to 10000 nM | O=c1[nH]cccc1S(=O)(=O)Nc1ccc(F)c(-c2ccc3c(-c4ncc[nH]4)n[nH]c3c2F)c1F [Example 2AC, N-(2,4-difluoro-3-(7-fluoro-3-(1H-imidazol-2-yl)-1H-indazol-6-yl)phenyl)-2-oxo-1,2-dihydro-pyridine-3-sulfonamide]
< 500 nM | COc1ncc(Cl)cc1S(=O)(=O)Nc1ccc(F)c(-c2ccc3c(C(=O)NCC(C)C)n[nH]c3c2F)c1F [Example 2CJ, 6-(3-((5-chloro-2-methoxy-pyridine)-3-sulfonamido)-2,6-difluorophenyl)-7-fluoro-N-isobutyl-1H-indazole-3-carboxamide]
< 500 nM | N#Cc1ccccc1S(=O)(=O)Nc1ccc(F)c(-c2ccc3c(-c4ncc[nH]4)n[nH]c3c2F)c1F [Example 2BK, 2-cyano-N-(2,4-difluoro-3-(7-fluoro-3-(1H-imidazol-2-yl)-1H-indazol-6-yl)phenyl)-benzenesulfonamide]
500 to 2500 nM | Cc1ccc(S(=O)(=O)Nc2ccc(F)c(-c3ccc4c(-c5ncc[nH]5)n[nH]c4c3F)c2F)cc1 [Example 1, N-(2,4-difluoro-3-(7-fluoro-3-(1H-imidazol-2-yl)-1H-indazol-6-yl)phenyl)-4-methylbenzenesulfonamide]
< 500 nM | COc1ncc(Cl)cc1S(=O)(=O)Nc1ccnc(-c2ccc3c(-c4ncc[nH]4)n[nH]c3c2)c1F [Example 2CB, N-(2-(3-(1H-imidazol-2-yl)-1H-indazol-6-yl)-3-fluoro-pyridin-4-yl)-5-chloro-2-methoxypyridinc-3-sulfonamide]
< 500 nM | Cn1cc(Cl)cc(S(=O)(=O)Nc2ccc(F)c(-c3ccc4c(-c5ncc[nH]5)n[nH]c4c3F)c2F)c1=O [Example 2AN, 5-chloro-N-(2,4-difluoro-3-(7-fluoro-3-(1H-imidazol-2-yl)-1H-indazol-6-yl)phenyl)-1-methyl-2-oxo-1,2-dihydro-pyridine-3-sulfonamide]

Same assay, conditions: Table 9

IC50 | Structure (SMILES)
< 500 nM | O=S(=O)(Nc1ncc(F)c(-c2ccc3c(-c4ncc[nH]4)n[nH]c3c2F)c1F)c1cc(F)ccc1F [Example 3H, N-(3,5-difIuoro-4-(7-fluoro-3-(1H-imidazol-2-yl)-1H-indazol-6-yl)pyridin-2-yl)-2,5-difluorobenzene-sulfonamide]
< 500 nM | COc1ncc(Cl)cc1S(=O)(=O)Nc1cccc(-c2cc3[nH]nc(C(N)=O)c3cn2)c1F [Example 3BD, 6-(3-((5-chloro-2-methoxy-pyridine)-3-sulfonamido)-2-fluorophenyl)-1H-pyrazolo-[4,3-c]pyridine-3-carboxamide]
< 500 nM | COc1ncc(F)cc1S(=O)(=O)Nc1ccc(F)c(-c2ccc3c(-c4n[nH]c(=O)[nH]4)n[nH]c3c2F)c1F [Example 3CW, N-(2,4-difluoro-3-(7-fluoro-3-(5-oxo-4,5-dihydro-1H-1,2,4-triazol-3-yl)-1H-indazol-6-yl)phenyl)-5-fluoro-2-methoxypyridine-3-sulfonamide]
< 500 nM | COc1ncc(F)cc1S(=O)(=O)Nc1ccc(F)c(-c2ccc3c(C(=O)NCC4CCN(C)CC4)n[nH]c3c2F)c1F [Example 3AK, 6-(2,6-difluoro-3-((5-fluoro-2-methoxypyridine)-3-sulfonamido)phenyl)-7-fluoro-N-((1-methylpiperidin-4-yl)methyl)-1H-indazole-3-carboxamide]
2500 to 10000 nM | COc1ncc(CO)cc1S(=O)(=O)Nc1ccc(F)c(-c2ccc3c(C(=O)NCCCO)n[nH]c3c2F)c1F [Example 3CN, 6-(2,6-difluoro-3-((5-(hydroxylmethyl)-2-methoxy-pyridine)-3-sulfonamido)-phenyl)-7-fluoro-N-(3-hydroxypropyl)-1H-indazole-3-carboxamide]
< 500 nM | COc1ncc(Cl)cc1S(=O)(=O)Nc1ccc(F)c(-c2ccc3c(C(=O)Nc4cnoc4)n[nH]c3c2F)c1F [Example 3CV, 6-(3-((5-chloro-2-methoxy-pyridine)-3-sulfonamido)-2,6-difluorophenyl)-7-fluoro-N-(isoxazol-4-yl)-1H-indazole-3-carboxamide]
> 10000 nM | Cc1ncc(F)cc1S(=O)(=O)Nc1cc(C#N)cc(-c2ccc3c(-c4ncc[nH]4)n[nH]c3c2F)c1F [Example 3CC, N-(5-cyano-2-fluoro-3-(7-fluoro-3-(1H-imidazol-2-yl)-1H-indazol-6-yl)phenyl)-5-fluoro-2-methylpyridine-3-sulfonamide]
< 500 nM | COc1ncc(F)cc1S(=O)(=O)Nc1ccc(F)c(-c2ccc3c(-c4nc(CO)c[nH]4)n[nH]c3c2F)c1F [Example 3X, N-(2,4-difluoro-3-(7-fluoro-3-(4-(hydroxymethyl)-1H-imidazol-2-yl)-1H-indazol-6-yl)phenl)-5-fluoro-2-methoxypyridine-3-sulfonamide]
2500 to 10000 nM | COc1ccc(NS(=O)(=O)c2cc(F)cnc2OC)c(F)c1-c1ccc2c(C(=O)NCCCO)n[nH]c2c1F [Example 25, 7-Fluoro-6-(2-fluoro-3-((5-fluoro-2-methoxypyridine)-3-sulfonamido)-6-methoxyphenyl)-N-(3-hydroxypropyl)-1H-indazole-3-carboxamide]
500 to 2500 nM | Cc1ccc(S(=O)(=O)Nc2ccc(F)c(-c3ccc4c(C(=O)NCCCN(C)C)n[nH]c4c3F)c2F)c(C)n1 [Example 3CO, N-(3-(dimethylamino)propyl)-6-(3-((2,6-dimethylpyridine)-3-sulfonamido)-2,6-difluorophenyl)-7-fluoro-1H-indazole-3-carboxamide]
< 500 nM | Cc1ncc(F)cc1S(=O)(=O)Nc1cc(F)cc(-c2ccc3c(C(=O)NCCCN(C)C)n[nH]c3c2F)c1F [Example 3CD, 6-(2,5-difluoro-3-((5-fluoro-2-methylpyridine)-3-sulfonamido)phenyl)-N-(3-(dimethylamino)propyl)-7-fluoro-1H-indazole-3-carboxamide]
< 500 nM | COc1ncc(F)cc1S(=O)(=O)Nc1ccc(F)c(-c2ccc3c(C(=O)NC[C@@H](O)CO)n[nH]c3c2F)c1F [Example 3AH, 6-(2,6-difluoro-3-((5-fluoro-2-methoxypyridine)-3-sulfonamido)phenyl)-N-((R)-2,3-dihydroxypropyl)-7-fluoro-1H-indazole-3-carboxamide]
500 to 2500 nM | Cc1ccc(S(=O)(=O)Nc2ccc(F)c(-c3ccc4c(C(N)=O)n[nH]c4c3F)c2F)c(C)n1 [Example 3DL, 6-(3-((2,6-dimethylpyridine)-3-sulfonamido)-2,6-difluoro-phenyl)-7-fluoro-1H-indazole-3-carboxamide]
< 500 nM | COc1ncc(Cl)cc1S(=O)(=O)Nc1cc(F)cc(-c2ccc3c(C(=O)N[C@@H]4CCN(C)C4)n[nH]c3c2F)c1F [Example 3BL, 6-(3-((5-chloro-2-methoxy-pyridine)-3-sulfonamido)-2,5-difluorophenyl)-7-fluoro-N-((R)-1-methylpyrrolidin-3-yl)-1H-indazole-3-carboxamide]
